The test system of the test is CD2F1 mice, intracerebral P388 leukemia, median survival T/C%. Put plainly: NCI In Vivo Anticancer Drug Screen. Data for tumor model P388 Leukemia (intracerebral) in CD2F1 (CDF1) mice. Conditions: endpoint: median survival time, higher = longer survival. As to the method:
The antitumor activity of compounds was measured in mice bearing transplantable tumors. Survival or tumor size were measured and the results are expressed as the measurement made in the treated group (T) divided by the measurement made in the vehicle treated control group (C). The tumor model used in this assay is P388 Leukemia (intracerebral) in CD2F1 (CDF1) mice

The mark [1] stands for this setting: dose: 8.0 mg/kg/injection, schedule: Q01DX009 (ip), vehicle: saline with Tween-80.
Setting [2] is: dose: 16.0 mg/kg/injection, schedule: Q01DX009 (ip), vehicle: saline with Tween-80.
Where [3] appears, read: dose: 32.0 mg/kg/injection, schedule: Q01DX009 (ip), vehicle: saline with Tween-80.
The mark [4] stands for this setting: dose: 64.0 mg/kg/injection, schedule: Q01DX009 (ip), vehicle: saline with Tween-80.
Setting [5] is: dose: 128.0 mg/kg/injection, schedule: Q01DX009 (ip), vehicle: saline with Tween-80.
Where [6] appears, read: dose: 8.0 mg/kg/injection, schedule: Q01DX009 (ip), vehicle: Klucel (hydroxypropylcellulose) (HPC).
Setting [7] is: dose: 16.0 mg/kg/injection, schedule: Q01DX009 (ip), vehicle: Klucel (hydroxypropylcellulose) (HPC).
Where [8] appears, read: dose: 32.0 mg/kg/injection, schedule: Q01DX009 (ip), vehicle: Klucel (hydroxypropylcellulose) (HPC).
[9] abbreviates: dose: 64.0 mg/kg/injection, schedule: Q01DX009 (ip), vehicle: Klucel (hydroxypropylcellulose) (HPC).
Setting [10] is: dose: 128.0 mg/kg/injection, schedule: Q01DX009 (ip), vehicle: Klucel (hydroxypropylcellulose) (HPC).
[11] abbreviates: dose: 256.0 mg/kg/injection, schedule: Q01DX009 (ip), vehicle: Klucel (hydroxypropylcellulose) (HPC).
[12] abbreviates: dose: 256.0 mg/kg/injection, schedule: Q01DX009 (ip), vehicle: saline with Tween-80.
Where [13] appears, read: dose: 512.0 mg/kg/injection, schedule: Q01DX009 (ip), vehicle: saline with Tween-80.
Where [14] appears, read: dose: 50.0 mg/kg/injection, schedule: Q01DX009 (ip), vehicle: saline.
Setting [15] is: dose: 100.0 mg/kg/injection, schedule: Q01DX009 (ip), vehicle: saline.

Structures are written as SMILES. Several values for one entry are separate records, joined by “and”; a condition that tells them apart may be missing. Equal values may be shown once. Inconclusive results and toxic doses are left out.

Turning to `COc1ccc(CC2C(=O)NC(C)C(=O)N(C)C3C(=O)N(C)C(Cc4ccc(O)c(c4)Oc4ccc(cc4)C3O)C(=O)NC(C)C(=O)NC(C)C(=O)N2C)cc1` (stereo unspecified), the T/C runs as follows: (dose: 0.12 mg/kg/injection, schedule: Q01DX009 (ip), vehicle: Klucel (hydroxypropylcellulose) (HPC)) 91 % of control and 98 % of control; (dose: 0.13 mg/kg/injection, schedule: Q01DX009 (ip), vehicle: saline) 104 % of control and 108 % of control; (dose: 0.25 mg/kg/injection, schedule: Q01DX009 (ip), vehicle: Klucel (hydroxypropylcellulose) (HPC)) 100 % of control and 103 % of control and 109 % of control; (dose: 0.25 mg/kg/injection, schedule: Q01DX009 (ip), vehicle: saline) 101 % of control and 109 % of control; (dose: 0.5 mg/kg/injection, schedule: Q01DX009 (ip), vehicle: Klucel (hydroxypropylcellulose) (HPC)) 100 % of control and 101 % of control and 106 % of control; (dose: 0.5 mg/kg/injection, schedule: Q01DX009 (ip), vehicle: saline) 104 % of control and 111 % of control. Also, the T/C was 95 % of control and 101 % of control and 106 % of control (dose: 1.0 mg/kg/injection, schedule: Q01DX009 (ip), vehicle: Klucel (hydroxypropylcellulose) (HPC)); 97 % of control and 103 % of control (dose: 1.0 mg/kg/injection, schedule: Q01DX009 (ip), vehicle: saline); 89 % of control (dose: 2.0 mg/kg/injection, schedule: Q01DX009 (ip), vehicle: Klucel (hydroxypropylcellulose) (HPC)); 109 % of control and 111 % of control (dose: 2.0 mg/kg/injection, schedule: Q01DX009 (ip), vehicle: saline).

On to `CN1CC[C@]23c4c5ccc(O)c4O[C@H]2C(=O)CC[C@H]3[C@H]1C5`, for which the T/C is 106 % of control (dose: 3.12 mg/kg/injection, schedule: Q01DX005 (iv), vehicle: saline); 104 % of control (dose: 6.25 mg/kg/injection, schedule: Q01DX005 (iv), vehicle: saline); 95 % of control (dose: 12.5 mg/kg/injection, schedule: Q01DX005 (iv), vehicle: saline).

For `CC(=O)OCC1C(=O)OCC1C(=O)N1Cc2cc3ccccc3nc2C1` (stereo unspecified), the T/C is 101 % of control (dose: 4.0 mg/kg/injection, schedule: Q01DX009 (ip), vehicle: saline with Tween-80); 103 % of control under setting [1]; 96 % of control under setting [2]; 107 % of control under setting [3]; 102 % of control under setting [4]; 96 % of control under setting [5].

`CN(Cc1cnc2nc(N)nc(N)c2n1)c1c(Cl)cc(C(=O)NC(CCC(=O)O)C(=O)O)cc1Cl` (stereo unspecified): the T/C is 115 % of control (dose: 16.0 mg/kg/injection, schedule: Q01DX005 (ip), vehicle: saline); 121 % of control (dose: 32.0 mg/kg/injection, schedule: Q01DX005 (ip), vehicle: saline); 86 % of control (dose: 128.0 mg/kg/injection, schedule: Q01DX005 (ip), vehicle: saline).

On to `CC(=O)N[C@@H](Cc1ccc(N(CCCl)CCCl)cc1)C(=O)ON1C(=O)CCC1=O`, for which the T/C was 105 % of control (dose: 1.45 mg/kg/injection, schedule: Q03HX008 (ip), vehicle: saline); 105 % of control (dose: 2.9 mg/kg/injection, schedule: Q03HX008 (ip), vehicle: saline); 115 % of control (dose: 5.8 mg/kg/injection, schedule: Q03HX008 (ip), vehicle: saline).

On to `CC1(C)N=C(N)N=C(N)N1c1ccc(OCc2ccc(C(=O)Nc3cccc(S(=O)(=O)F)c3)cc2)c(Cl)c1`, for which the T/C was 100 % of control (dose: 50.0 mg/kg/injection, schedule: Q04DX003 (ip), vehicle: saline); 94 % of control (dose: 100.0 mg/kg/injection, schedule: Q04DX003 (ip), vehicle: saline); 105 % of control (dose: 200.0 mg/kg/injection, schedule: Q04DX003 (ip), vehicle: saline); 88 % of control (dose: 400.0 mg/kg/injection, schedule: Q04DX003 (ip), vehicle: saline).

`CCC(=O)O[C@H]1CC[C@H]2[C@@H]3CC[C@H]4CC(=O)[C@H](C)C[C@]4(C)[C@H]3CC[C@]12C`: the T/C is 121 % of control and 105 % of control under setting [6]; 100 % of control and 106 % of control under setting [1]; 94 % of control and 103 % of control under setting [7]; 100 % of control and 106 % of control under setting [2]; 123 % of control and 98 % of control under setting [8]; 97 % of control and 100 % of control under setting [3]. For the same compound, the T/C was 123 % of control and 100 % of control under setting [9]; 116 % of control and 91 % of control under setting [4]; 120 % of control and 102 % of control under setting [10]; 95 % of control and 106 % of control under setting [5]; 114 % of control and 94 % of control under setting [11]; 100 % of control and 109 % of control under setting [12]. Further, the T/C by setting is: (dose: 512.0 mg/kg/injection, schedule: Q01DX009 (ip), vehicle: Klucel (hydroxypropylcellulose) (HPC)) 111 % of control; under setting [13], 91 % of control and 106 % of control.

Take `CC(=O)O[C@]1(C(C)=O)CC[C@H]2[C@@H]3C[C@H](C)C4=CC(=O)CC[C@]4(C)[C@H]3CC[C@@]21C`: the T/C was 92 % of control and 104 % of control under setting [6]; 100 % of control and 102 % of control under setting [7]; 93 % of control and 103 % of control under setting [8]; 90 % of control and 99 % of control under setting [9]; 90 % of control and 101 % of control under setting [10]; 96 % of control and 103 % of control under setting [11].

As for `CC/C(=C(/CC)c1ccc(O)cc1)c1ccc(O)cc1`, the T/C reads like this: under setting [1], 105 % of control; (dose: 8.0 mg/kg/injection, schedule: Q01DX009 (ip), vehicle: saline) 104 % of control; under setting [2], 106 % of control; (dose: 16.0 mg/kg/injection, schedule: Q01DX009 (ip), vehicle: saline) 107 % of control; under setting [3], 107 % of control; (dose: 32.0 mg/kg/injection, schedule: Q01DX009 (ip), vehicle: saline) 158 % of control. Also, the T/C is 100 % of control under setting [4]; 116 % of control (dose: 64.0 mg/kg/injection, schedule: Q01DX009 (ip), vehicle: saline); 115 % of control under setting [5]; 90 % of control (dose: 128.0 mg/kg/injection, schedule: Q01DX009 (ip), vehicle: saline); 106 % of control under setting [12]; 88 % of control (dose: 256.0 mg/kg/injection, schedule: Q01DX009 (ip), vehicle: saline). Besides, the T/C under setting [13] was 86 % of control.

With `CC1(C)N=C(N)N=C(N)N1c1ccc(OCCCNC(=O)Nc2cccc(S(=O)(=O)F)c2)c(Cl)c1`, the T/C by setting is: (dose: 25.0 mg/kg/injection, schedule: Q01DX009 (ip), vehicle: saline) 105 % of control; under setting [14], 111 % of control; under setting [15], 100 % of control.

For the compound `CC1(C)N=C(N)N=C(N)N1c1ccc(CCC(=O)Nc2ccc(S(=O)(=O)F)cc2)cc1`, the T/C was 111 % of control under setting [14] and 100 % of control under setting [15].

Turning to `CCCCCc1cc(O)c2c(c1)OC(C)(C)[C@@H]1CCC(C)=C[C@@H]21`, the T/C is, setting by setting: (dose: 2.75 mg/kg/injection, schedule: Q01DX005 (iv), vehicle: other) 105 % of control; (dose: 5.5 mg/kg/injection, schedule: Q01DX005 (iv), vehicle: other) 101 % of control; (dose: 11.0 mg/kg/injection, schedule: Q01DX005 (iv), vehicle: other) 103 % of control; (dose: 22.0 mg/kg/injection, schedule: Q01DX005 (iv), vehicle: other) 104 % of control; (dose: 44.0 mg/kg/injection, schedule: Q01DX005 (iv), vehicle: other) 101 % of control.

For the compound `NC(=S)N/N=C/c1ccc(O)cn1`, the T/C by setting is: (dose: 12.0 mg/kg/injection, schedule: Q01DX005 (ip), vehicle: saline) 99 % of control and 100 % of control; (dose: 24.0 mg/kg/injection, schedule: Q01DX005 (ip), vehicle: saline) 96 % of control and 97 % of control; (dose: 48.0 mg/kg/injection, schedule: Q01DX005 (ip), vehicle: saline) 101 % of control and 106 % of control; (dose: 96.0 mg/kg/injection, schedule: Q01DX005 (ip), vehicle: saline) 93 % of control and 103 % of control.

The record behind these values is PubChem BioAssay AID334 (DTP/NCI, 2004).
